Test results from ChEMBL document CHEMBL2203232, “Design and discovery of new (3S,5R)-5-[4-(2-chlorophenyl)-2,2-dimethyl-5-oxopiperazin-1-yl]piperidine-3-carboxamides as potent renin inhibitors” (Bioorg Med Chem Lett, 2012).
Changes are numbered by the printed parent chain. Active and inactive are the calls of the source. The rule behind the calls is not given here.

What was measured:
Renin [1] = biological target: T1, Renin (Macaca fascicularis, UniProt Q6DLS0); assay: Inhibition of renin in cynomolgus monkey plasma after 60 mins by competitive radioimmunoassay
T1 sequence (Q6DLS0 whole entry): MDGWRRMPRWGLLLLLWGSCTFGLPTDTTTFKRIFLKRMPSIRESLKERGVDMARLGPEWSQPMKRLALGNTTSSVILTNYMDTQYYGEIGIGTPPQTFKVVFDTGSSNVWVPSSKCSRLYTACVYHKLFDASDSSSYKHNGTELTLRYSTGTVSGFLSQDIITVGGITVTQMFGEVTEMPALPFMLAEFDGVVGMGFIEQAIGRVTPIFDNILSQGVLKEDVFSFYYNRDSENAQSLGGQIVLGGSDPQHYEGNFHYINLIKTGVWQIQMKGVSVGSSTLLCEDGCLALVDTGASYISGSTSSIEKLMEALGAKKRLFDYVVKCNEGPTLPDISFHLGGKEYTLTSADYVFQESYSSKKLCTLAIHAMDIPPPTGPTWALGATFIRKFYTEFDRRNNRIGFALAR

Renin [2] = biological target: T2, Renin (Homo sapiens, UniProt P00797); assay: Inhibition of recombinant human renin using Arg-Glu(EDANS)-Ile-His-Pro-Phe-His-Leu-Val-Ile-His-Thr-Lys(DABCYL)-Arg as substrate incubated for 10 mins prior to substrate addition measured after 90 mins by fluorimetric analysis
T2 sequence (P00797 whole entry): T1 sequence (Q6DLS0 whole entry) with A68T, L214I, A235S

[3] = Clearance in Sprague-Dawley rat at 1 mg/kg, iv; assay type: ADME, organism-based; set-up: dose 1 mg/kg, route intravenous; conditions: in vivo
[4] = Cmax in Sprague-Dawley rat at 10 mg/kg, po; assay type: ADME, organism-based; set-up: dose 10 mg/kg, route oral; conditions: in vivo
[5] = AUC (0 to 24 hrs) in Sprague-Dawley rat at 10 mg/kg, po; assay type: ADME, organism-based; set-up: time < 24 hr, dose 10 mg/kg, route oral; conditions: plasma
[6] = Half life in Sprague-Dawley rat at 1 mg/kg, iv; assay type: ADME, organism-based; set-up: dose 1 mg/kg, route intravenous; conditions: in vivo
Rattus norvegicus = assay: Antihypertensive activity in transgenic rat expressing human angiotensin and renin assessed as reduction in mean arterial blood pressure at 10 mg/kg, po measured up to 24 hrs; assay type: functional, organism-based; set-up: dose 10 mg/kg; conditions: Artery
[7] = Volume of distribution at steady state in Sprague-Dawley rat at 1 mg/kg, iv; assay type: ADME, organism-based; set-up: dose 1 mg/kg, route intravenous; conditions: in vivo, read-out: Vdss
[8] = Oral bioavailability in Sprague-Dawley rat at 10 mg/kg; assay type: ADME, organism-based; conditions: in vivo

| Structure (SMILES) | IC50 (Renin [1]) [nM] | IC50 (Renin [2]) [nM] | other results |
| --- | --- | --- | --- |
| CC[C@@H](NC(=O)[C@@H]1CNC[C@H](N2CC(=O)N(c3ccccc3Cl)CC2(C)C)C1)c1ccccc1 | 6.6 | 2.1 | – |
| CC(C)CCNC(=O)[C@@H]1CNC[C@H](CN2CC(=O)N(c3ccccc3Cl)CC2(C)C)C1 | > 1000 | – | – |
| CCOC[C@@H](CC(C)C)NC(=O)[C@@H]1CNC[C@H](N2CC(=O)N(c3ccccc3Cl)CC2(C)C)C1.O=C(O)/C=C/C(=O)O | 1.4 | 1.3 | clearance [3]: 31 mL/min/kg; Cmax [4]: 540 ng/mL; AUC(0-t) at 24 h [5]: 1940 ng·h/mL; half-life [6]: 3.2 h; Activity (Rattus norvegicus): Active; Vd [7]: 5.8 L/kg; bioavailability [8]: 45% |
| CC(C)CCNC(=O)[C@@H]1CNC[C@H](C(=O)N2CC(=O)N(c3ccccc3Cl)CC2(C)C)C1 | > 1000 | > 1000 | – |
| CC(C)C[C@@H](NC(=O)[C@@H]1CNC[C@H](N2CC(=O)N(c3ccccc3Cl)CC2(C)C)C1)c1ccccc1 | 9 | 2.1 | – |
| CCC[C@@H](NC(=O)[C@@H]1CNC[C@H](N2CC(=O)N(c3ccccc3Cl)CC2(C)C)C1)c1ccccc1 | 18 | 2.5 | – |
| CC(C)C[C@@H](NC(=O)[C@@H]1CNC[C@H](N2CC(=O)N(c3ccccc3Cl)CC2(C)C)C1)c1cccnc1 | 4.2 | 2.1 | – |

The next lines start with results.

| IC50 (Renin [1]) [nM] | IC50 (Renin [2]) [nM] | Structure (SMILES) | other results |
| --- | --- | --- | --- |
| 16 | 2.8 | CC[C@H](CC(C)C)NC(=O)[C@@H]1CNC[C@H](N2CC(=O)N(c3ccccc3Cl)CC2(C)C)C1 | – |
| 54 | – | CC(C)CCNC(=O)[C@@H]1CNC[C@H](N2CC(=O)N(c3ccccc3Cl)CC2(C)C)C1 | – |
| 23 | 8.4 | CC(C)C[C@@H](NC(=O)[C@@H]1CNC[C@H](N2CC(=O)N(c3ccccc3Cl)CC2(C)C)C1)C(=O)N(C)C | – |
| 7.5 | 2.5 | CC(C)C[C@@H](NC(=O)[C@@H]1CNC[C@H](N2CC(=O)N(c3ccccc3Cl)CC2(C)C)C1)C(O)C(C)C (stereo in doubt; 14) | – |
| 10 | – | CC(C)CC(CC(C)C)NC(=O)[C@@H]1CNC[C@H](N2CC(=O)N(c3ccccc3Cl)CC2(C)C)C1 | – |
| 4.8 | 2.3 | CC(C)C[C@@H](NC(=O)[C@@H]1CNC[C@H](N2CC(=O)N(c3ccccc3Cl)CC2(C)C)C1)C(O)C(C)C (stereo in doubt; 13) | – |
